Reference: patent US12428408B2, “Fused heterocyclic mescaline derivatives” (Enveric Biosciences Canada Inc., priority 2022, dated 2025)

Tests used:
[1] = biological target: T1, MT1 (ML1A) (h) (Homo sapiens, UniProt P48039); experiment: Competition assay to measure binding affinity at MT1 receptor; settings: test ligand 10 μM; [125I]2-iodomelatonin 0.01 nM
T1 construct: host or cells: CHO cells

[2] = biological target: T2, alpha2A (h) (Homo sapiens, UniProt P08913); experiment: Competition assay to measure binding affinity at alpha2A receptor; settings: test ligand 10 μM; [3H]RX 821002 1 nM; read-out: α-2A, percent of control-specific binding
T2 construct: host or cells: CHO cells
T2 sequence (P08913 1-465): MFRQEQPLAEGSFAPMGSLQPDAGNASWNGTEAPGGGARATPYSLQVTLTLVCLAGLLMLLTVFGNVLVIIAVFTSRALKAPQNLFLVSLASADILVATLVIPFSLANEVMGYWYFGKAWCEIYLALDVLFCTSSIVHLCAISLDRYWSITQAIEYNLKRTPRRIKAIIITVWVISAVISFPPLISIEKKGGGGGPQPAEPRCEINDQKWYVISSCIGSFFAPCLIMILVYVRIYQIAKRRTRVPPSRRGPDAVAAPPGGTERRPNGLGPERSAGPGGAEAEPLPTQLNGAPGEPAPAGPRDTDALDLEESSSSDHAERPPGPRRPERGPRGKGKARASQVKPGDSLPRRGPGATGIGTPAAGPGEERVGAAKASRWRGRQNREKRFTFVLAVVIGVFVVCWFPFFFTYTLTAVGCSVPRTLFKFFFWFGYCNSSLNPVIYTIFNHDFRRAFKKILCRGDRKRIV

[3] = biological target: T3, D3 (h) (Homo sapiens, UniProt P35462); experiment: Competition assay to measure binding affinity at D3 receptor; settings: test ligand 10 μM; [3H]methylspiperone […]
T3 construct: host or cells: CHO cells
T3 sequence (P35462 whole entry): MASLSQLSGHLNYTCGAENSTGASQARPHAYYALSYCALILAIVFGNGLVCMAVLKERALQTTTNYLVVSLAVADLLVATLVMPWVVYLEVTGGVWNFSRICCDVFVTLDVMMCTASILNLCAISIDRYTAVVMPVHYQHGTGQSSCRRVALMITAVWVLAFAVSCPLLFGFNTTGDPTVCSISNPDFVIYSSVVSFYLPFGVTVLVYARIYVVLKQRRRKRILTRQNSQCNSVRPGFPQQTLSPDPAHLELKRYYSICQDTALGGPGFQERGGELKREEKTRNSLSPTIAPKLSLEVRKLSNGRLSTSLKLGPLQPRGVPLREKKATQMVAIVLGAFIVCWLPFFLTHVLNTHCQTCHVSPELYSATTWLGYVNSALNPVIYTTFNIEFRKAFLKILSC

[4] = biological target: T4, 5-HT1B (h) (Homo sapiens, UniProt P28222); experiment: Competition assay to measure binding affinity at 5-HT1B receptor; settings: test ligand 10 μM; [3H]GR125743 1 nM
T4 construct: host or cells: Chem-1 (RBL) cells
T4 sequence (P28222 whole entry): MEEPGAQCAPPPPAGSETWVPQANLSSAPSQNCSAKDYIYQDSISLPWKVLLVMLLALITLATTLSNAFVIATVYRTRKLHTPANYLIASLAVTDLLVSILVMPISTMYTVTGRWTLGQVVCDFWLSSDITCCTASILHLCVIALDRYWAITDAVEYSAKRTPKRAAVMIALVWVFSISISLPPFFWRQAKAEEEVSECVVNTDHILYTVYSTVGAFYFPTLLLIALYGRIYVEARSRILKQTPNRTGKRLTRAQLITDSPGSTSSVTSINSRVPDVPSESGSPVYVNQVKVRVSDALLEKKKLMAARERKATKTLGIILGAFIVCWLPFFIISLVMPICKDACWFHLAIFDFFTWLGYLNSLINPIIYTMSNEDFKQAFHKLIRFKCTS

[5] = biological target: T5, 5-HT1D (r) (Rattus norvegicus, UniProt P28565); experiment: Competition assay to measure binding affinity at 5-HT1D receptor; settings: test ligand 10 μM; [3H]serotonin 1 nM
T5 construct: host or cells: CHO cells
T5 sequence (P28565 whole entry): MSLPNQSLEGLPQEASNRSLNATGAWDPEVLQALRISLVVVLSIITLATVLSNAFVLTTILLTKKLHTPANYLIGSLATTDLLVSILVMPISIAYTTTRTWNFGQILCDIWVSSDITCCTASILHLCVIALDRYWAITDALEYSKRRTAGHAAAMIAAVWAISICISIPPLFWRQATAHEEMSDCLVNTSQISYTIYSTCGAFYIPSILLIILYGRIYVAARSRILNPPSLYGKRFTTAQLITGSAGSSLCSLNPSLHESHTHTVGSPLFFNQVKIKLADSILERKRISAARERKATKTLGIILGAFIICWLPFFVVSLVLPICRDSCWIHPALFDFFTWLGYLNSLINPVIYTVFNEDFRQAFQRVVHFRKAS

[6] = biological target: T6, NET (h) (Homo sapiens, UniProt P23975); experiment: Competition assay to measure binding affinity at norepinephrine transporter (NET); settings: test ligand 10 μM; [3H]nisoxetine 1 nM
T6 construct: host or cells: CHO cells
T6 sequence (P23975 whole entry): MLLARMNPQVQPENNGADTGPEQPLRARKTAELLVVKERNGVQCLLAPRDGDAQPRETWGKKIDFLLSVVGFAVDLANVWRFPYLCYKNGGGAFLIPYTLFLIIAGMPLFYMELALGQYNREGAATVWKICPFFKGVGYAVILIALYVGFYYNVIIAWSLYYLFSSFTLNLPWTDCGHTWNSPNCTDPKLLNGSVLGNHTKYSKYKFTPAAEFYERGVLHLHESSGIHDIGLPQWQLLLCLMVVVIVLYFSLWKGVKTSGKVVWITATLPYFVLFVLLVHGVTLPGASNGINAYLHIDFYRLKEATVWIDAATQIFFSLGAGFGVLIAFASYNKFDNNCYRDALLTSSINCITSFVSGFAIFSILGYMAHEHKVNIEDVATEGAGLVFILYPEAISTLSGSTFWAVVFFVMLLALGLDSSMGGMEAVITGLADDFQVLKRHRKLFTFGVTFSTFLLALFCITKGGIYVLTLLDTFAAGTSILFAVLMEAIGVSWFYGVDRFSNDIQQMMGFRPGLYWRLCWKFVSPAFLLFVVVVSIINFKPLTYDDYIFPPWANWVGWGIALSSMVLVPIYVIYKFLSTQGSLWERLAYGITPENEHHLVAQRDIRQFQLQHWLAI

[7] = biological target: T7, D2 (h) (Homo sapiens, UniProt P14416); experiment: Competition assay to measure binding affinity at D2L receptor; settings: test ligand 10 μM; [3H]methylspiperone 0.3 nM
T7 construct: host or cells: HEK-293 cells
T7 sequence (P14416 whole entry): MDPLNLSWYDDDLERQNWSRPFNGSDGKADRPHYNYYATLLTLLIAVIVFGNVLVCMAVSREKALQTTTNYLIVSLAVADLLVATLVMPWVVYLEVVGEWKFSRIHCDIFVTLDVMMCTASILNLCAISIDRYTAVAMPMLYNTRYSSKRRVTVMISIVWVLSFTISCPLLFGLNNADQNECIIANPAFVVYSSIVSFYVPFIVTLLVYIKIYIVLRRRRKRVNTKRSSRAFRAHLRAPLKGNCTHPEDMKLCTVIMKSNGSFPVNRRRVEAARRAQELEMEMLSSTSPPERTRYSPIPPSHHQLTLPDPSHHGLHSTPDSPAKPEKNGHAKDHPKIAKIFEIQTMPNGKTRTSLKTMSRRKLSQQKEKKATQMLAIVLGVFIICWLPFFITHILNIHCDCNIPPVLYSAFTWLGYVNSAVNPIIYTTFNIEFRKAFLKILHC

[8] = biological target: T8, 5-HT2C (h) (Homo sapiens, UniProt P28335); experiment: Competition assay to measure binding affinity at 5-HT2C receptor; settings: test ligand 10 μM; [125I](±)DOI 0.1 nM
T8 construct: host or cells: HEK-293 cells
T8 sequence (P28335 33-458): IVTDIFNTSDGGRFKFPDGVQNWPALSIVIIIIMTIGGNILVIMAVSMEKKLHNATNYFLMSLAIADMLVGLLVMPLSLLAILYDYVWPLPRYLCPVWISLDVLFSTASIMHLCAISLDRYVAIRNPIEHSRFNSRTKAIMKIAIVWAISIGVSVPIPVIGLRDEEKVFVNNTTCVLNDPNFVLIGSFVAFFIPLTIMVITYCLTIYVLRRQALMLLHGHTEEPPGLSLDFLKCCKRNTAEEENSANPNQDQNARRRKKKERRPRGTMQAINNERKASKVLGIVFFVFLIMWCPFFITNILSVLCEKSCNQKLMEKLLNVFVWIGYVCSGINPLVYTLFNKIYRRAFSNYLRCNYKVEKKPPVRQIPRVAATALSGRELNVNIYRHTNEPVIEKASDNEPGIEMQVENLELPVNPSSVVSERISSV

[9] = biological target: T9, 5-HT2B (h) (Homo sapiens, UniProt P41595); experiment: Competition assay to measure binding affinity at 5-HT2B receptor; settings: test ligand 10 μM; [3H]mesulergine 2 nM
T9 construct: host or cells: CHO cells
T9 sequence (P41595 whole entry): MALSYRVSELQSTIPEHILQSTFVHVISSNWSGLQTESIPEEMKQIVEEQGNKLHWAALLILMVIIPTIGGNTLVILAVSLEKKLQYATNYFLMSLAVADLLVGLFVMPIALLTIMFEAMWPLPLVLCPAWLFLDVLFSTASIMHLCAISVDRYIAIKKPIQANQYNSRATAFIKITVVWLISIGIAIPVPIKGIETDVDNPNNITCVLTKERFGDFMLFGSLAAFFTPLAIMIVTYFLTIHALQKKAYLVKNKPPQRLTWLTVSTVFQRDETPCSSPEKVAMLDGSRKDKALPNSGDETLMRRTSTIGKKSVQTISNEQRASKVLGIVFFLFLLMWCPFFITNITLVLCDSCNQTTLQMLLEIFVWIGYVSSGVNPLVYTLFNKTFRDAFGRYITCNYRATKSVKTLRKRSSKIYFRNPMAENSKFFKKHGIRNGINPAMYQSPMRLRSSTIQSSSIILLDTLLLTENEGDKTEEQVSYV

[10] = biological target: T10, DAT (h) (Homo sapiens, UniProt Q01959); experiment: Competition assay to measure binding affinity at dopamine transporter (DAT); settings: test ligand 10 μM; [3H]BTCP 4 nM
T10 construct: host or cells: CHO cells
T10 sequence (Q01959 whole entry): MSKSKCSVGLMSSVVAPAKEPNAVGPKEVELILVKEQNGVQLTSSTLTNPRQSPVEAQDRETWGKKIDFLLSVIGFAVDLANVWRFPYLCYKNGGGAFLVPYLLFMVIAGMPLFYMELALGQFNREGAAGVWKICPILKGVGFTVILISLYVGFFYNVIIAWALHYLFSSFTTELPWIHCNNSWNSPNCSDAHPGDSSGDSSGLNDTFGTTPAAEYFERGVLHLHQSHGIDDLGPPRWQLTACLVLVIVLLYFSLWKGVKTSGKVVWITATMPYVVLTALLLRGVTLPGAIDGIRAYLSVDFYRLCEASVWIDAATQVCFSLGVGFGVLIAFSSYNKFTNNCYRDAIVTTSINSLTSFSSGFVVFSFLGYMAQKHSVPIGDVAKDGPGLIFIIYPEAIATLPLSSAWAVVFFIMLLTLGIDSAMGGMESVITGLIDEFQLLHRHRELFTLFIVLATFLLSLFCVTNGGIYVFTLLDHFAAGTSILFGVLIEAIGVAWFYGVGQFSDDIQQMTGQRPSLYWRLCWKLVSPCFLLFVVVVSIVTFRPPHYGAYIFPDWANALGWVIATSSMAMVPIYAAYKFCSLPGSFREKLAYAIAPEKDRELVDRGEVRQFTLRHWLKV

[11] = biological target: T11, 5-HT1A receptor (Homo sapiens, UniProt P08908); experiment: 5-HT1A receptor radioligand competition assay (SPA); type: binding; settings: competition with 0.5 nM 8-hydroxy-DPAT [3H]; test compound 3 nM to 1 mM; read-out: 5-HT1A, Ki
T11 construct: purchased Perkin Elmer 6110501400UA
T11 sequence (P08908 1-422): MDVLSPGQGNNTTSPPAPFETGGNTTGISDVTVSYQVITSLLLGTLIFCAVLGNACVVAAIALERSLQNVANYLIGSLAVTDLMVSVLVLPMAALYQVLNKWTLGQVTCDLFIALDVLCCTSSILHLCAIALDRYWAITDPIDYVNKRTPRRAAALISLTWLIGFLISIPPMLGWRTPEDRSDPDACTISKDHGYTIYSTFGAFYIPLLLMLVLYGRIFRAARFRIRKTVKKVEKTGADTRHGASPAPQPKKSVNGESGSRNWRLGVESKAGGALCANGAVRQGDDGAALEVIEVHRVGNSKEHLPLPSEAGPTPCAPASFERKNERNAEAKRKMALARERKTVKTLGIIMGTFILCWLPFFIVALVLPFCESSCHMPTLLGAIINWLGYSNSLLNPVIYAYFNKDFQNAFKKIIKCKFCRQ

[12] = biological target: T12, human serotonin transporter (SERT) (Homo sapiens, UniProt P31645); experiment: biochemical; type: binding
T12 construct: purchased PerkinElmer RBHSTM400UA
T12 sequence (P31645 whole entry): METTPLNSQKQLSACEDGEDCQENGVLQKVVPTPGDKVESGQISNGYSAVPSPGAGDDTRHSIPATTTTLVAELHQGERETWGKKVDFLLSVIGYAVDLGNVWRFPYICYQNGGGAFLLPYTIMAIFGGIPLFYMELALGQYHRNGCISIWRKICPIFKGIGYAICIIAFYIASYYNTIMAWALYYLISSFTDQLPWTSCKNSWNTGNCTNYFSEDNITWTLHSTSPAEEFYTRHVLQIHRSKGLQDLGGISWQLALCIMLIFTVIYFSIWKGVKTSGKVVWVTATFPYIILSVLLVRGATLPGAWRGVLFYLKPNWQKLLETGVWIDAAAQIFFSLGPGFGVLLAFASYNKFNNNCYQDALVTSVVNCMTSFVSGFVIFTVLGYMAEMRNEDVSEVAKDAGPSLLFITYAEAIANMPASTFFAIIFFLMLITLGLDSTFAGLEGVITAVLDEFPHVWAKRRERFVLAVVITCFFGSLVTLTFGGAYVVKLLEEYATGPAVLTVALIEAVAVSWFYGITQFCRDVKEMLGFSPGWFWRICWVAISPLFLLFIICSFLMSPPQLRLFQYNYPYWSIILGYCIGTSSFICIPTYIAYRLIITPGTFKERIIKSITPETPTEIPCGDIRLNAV

[13] = biological target: T13, 5-HT7 (h) (Homo sapiens, UniProt P34969); experiment: Competition assay to measure binding affinity at 5-HT7 receptor; settings: test ligand 10 μM; [3H]LSD 4 nM
T13 construct: host or cells: HEK-293 cells
T13 sequence (P34969 whole entry): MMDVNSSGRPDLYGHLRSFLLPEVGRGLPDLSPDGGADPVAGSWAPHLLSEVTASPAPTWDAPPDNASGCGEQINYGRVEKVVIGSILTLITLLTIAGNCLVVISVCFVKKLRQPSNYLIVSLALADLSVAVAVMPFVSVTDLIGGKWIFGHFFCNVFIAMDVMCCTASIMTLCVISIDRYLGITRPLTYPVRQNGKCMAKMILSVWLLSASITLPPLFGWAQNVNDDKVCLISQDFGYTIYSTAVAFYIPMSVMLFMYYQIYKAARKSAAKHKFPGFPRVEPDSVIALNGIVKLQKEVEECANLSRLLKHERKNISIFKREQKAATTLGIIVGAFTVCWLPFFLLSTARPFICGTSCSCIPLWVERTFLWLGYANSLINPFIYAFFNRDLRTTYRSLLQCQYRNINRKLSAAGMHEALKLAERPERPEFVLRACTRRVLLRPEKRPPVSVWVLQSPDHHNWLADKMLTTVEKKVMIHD

T1 sequence (P48039 whole entry): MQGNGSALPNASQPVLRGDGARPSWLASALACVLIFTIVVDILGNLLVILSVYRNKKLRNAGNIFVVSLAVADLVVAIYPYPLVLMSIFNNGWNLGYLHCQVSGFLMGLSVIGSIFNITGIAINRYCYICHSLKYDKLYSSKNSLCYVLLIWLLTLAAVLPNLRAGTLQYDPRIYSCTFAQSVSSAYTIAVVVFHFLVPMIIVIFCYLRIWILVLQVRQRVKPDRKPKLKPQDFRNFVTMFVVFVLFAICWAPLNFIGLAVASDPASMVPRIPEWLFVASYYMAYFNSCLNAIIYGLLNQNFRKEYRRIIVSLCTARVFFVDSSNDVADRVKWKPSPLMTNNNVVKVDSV

SMILES	MT1, percent of control-specific binding [1]	inhibition at 10 µM [2]	D3, percent of control-specific binding [3]	HT1B, percent of control-specific binding [4]	HT1D, percent of control-specific binding [5]	NET, percent of control-specific binding [6]	D2, percent of control-specific binding [7]	HT2C, percent of control-specific binding [8]	HT2B, percent of control-specific binding [9]	DAT, percent of control-specific binding [10]	Ki [11]	Ki [12]	HT7, percent of control-specific binding [13]
CN(C)CCCN1c2ccccc2CCc2ccccc21 [Imipramine, reference compound]	29%	57%	92%	36%	39%	99%	82%	98%	94%	23%			
CNCC[C@H](Oc1cccc2ccccc12)c1cccs1 [Duloxetine, reference compound]	23%		66%	52%	63%		24%	92%	95%				
CON(C)C(C)Cc1ccc2c(c1)OCO2 (centres unmarked) [A(XVIII)]	6%	0%	5%	6%	0%	1%	0%	3%	9%	5%	> 1000 µM	98 µM	6%
O=c1n(CCCN2CCN(c3cccc(Cl)c3)CC2)nc2ccccn12 [Trazodone, reference compound]	14%	91%	89%	61%		−1%	61%	93%	97%	24%			
COc1cc2c(cc1CC(=O)NCCO)OCO2 [A(XXII)]	18%	0%	3%	0%	5%	1%	0%	15%	14%	0%	> 1000 µM	52.3 µM	20%
COc1ccc2[nH]cc(CCNC(C)=O)c2c1 [Melatonin, reference compound]	98%	-7%	2%	0%	13%	−2%	−20%	19%	52%	4%			
